In publication PMC9071444 (Nucleic Acids Research, 2022):
Entries after “also recorded” stand apart in the source; their conditions may differ. Where two headings read alike, the source gives them in different places.

How the values were obtained:
[1] = test system: RNA G4 derived from the Nipah virus and ZIKV genomes; conditions: cited from earlier work
TBEV-5 [2] = type: binding, tick-borne encephalitis virus
[3] = test system: SuperScript IV reverse transcriptase; type: biochemical
[4] = test system: Japanese encephalitis virus RdRp; type: biochemical
TBEV-5 [5] = type: binding, tick-borne encephalitis virus; remark: listed apart in the source
TBEV-5 [6] = type: binding, tick-borne encephalitis virus; remark: listed apart in the source
TBEV-5 [7] = type: binding, tick-borne encephalitis virus; remark: listed apart in the source
[8] = test system: TBEV strains Neudoerfl and Hypr; experiment: microbe, parasite or virus in culture; type: cell-based, tick-borne encephalitis virus; conditions: for EC50: read-out: EC50
TBEV strain Hypr [9] = test system: TBEV strain Hypr
TBEV strain Neudoerfl [10] = experiment: microbe, parasite or virus in culture; conditions: Tick-borne encephalitis virus, 48 h
TBEV strain Hypr [11] = experiment: microbe, parasite or virus in culture; conditions: Tick-borne encephalitis virus, 48 h
in vitro = conditions: pig
TBEV strain Neudoerfl [12] = test system: TBEV strain Neudoerfl
ZIKV virus = conditions: 100 μM; cited from earlier work
TBEV strain Hypr [13] = type: cell-based, tick-borne encephalitis virus
[14] = test system: Viral genome RNA from the TBEV strain Hypr; type: cell-based, tick-borne encephalitis virus
[15] = test system: SuperScript IV reverse transcriptase; type: biochemical; remark: listed apart in the source
TBEV strain Hypr [16] = type: cell-based, tick-borne encephalitis virus; remark: listed apart in the source
TBEV strain Neudoerfl [17] = type: cell-based, tick-borne encephalitis virus
[18] = test system: TBEV strains Neudoerfl and Hypr; type: cell-based, tick-borne encephalitis virus
ZIKV = conditions: cited from earlier work
ZIKV NS2B-NS3 protease = conditions: cited from earlier work
[19] = molecular target: Japanese encephalitis virus RdRp (Japanese encephalitis virus, UniProt P32886); type: biochemical
HCV RdRp = conditions: cited from earlier work
[20] = Tick-borne encephalitis virus, 48 h

Sequence of Japanese encephalitis virus RdRp (Japanese encephalitis virus, UniProt P32886) (P32886 2528-3432 limits assumed): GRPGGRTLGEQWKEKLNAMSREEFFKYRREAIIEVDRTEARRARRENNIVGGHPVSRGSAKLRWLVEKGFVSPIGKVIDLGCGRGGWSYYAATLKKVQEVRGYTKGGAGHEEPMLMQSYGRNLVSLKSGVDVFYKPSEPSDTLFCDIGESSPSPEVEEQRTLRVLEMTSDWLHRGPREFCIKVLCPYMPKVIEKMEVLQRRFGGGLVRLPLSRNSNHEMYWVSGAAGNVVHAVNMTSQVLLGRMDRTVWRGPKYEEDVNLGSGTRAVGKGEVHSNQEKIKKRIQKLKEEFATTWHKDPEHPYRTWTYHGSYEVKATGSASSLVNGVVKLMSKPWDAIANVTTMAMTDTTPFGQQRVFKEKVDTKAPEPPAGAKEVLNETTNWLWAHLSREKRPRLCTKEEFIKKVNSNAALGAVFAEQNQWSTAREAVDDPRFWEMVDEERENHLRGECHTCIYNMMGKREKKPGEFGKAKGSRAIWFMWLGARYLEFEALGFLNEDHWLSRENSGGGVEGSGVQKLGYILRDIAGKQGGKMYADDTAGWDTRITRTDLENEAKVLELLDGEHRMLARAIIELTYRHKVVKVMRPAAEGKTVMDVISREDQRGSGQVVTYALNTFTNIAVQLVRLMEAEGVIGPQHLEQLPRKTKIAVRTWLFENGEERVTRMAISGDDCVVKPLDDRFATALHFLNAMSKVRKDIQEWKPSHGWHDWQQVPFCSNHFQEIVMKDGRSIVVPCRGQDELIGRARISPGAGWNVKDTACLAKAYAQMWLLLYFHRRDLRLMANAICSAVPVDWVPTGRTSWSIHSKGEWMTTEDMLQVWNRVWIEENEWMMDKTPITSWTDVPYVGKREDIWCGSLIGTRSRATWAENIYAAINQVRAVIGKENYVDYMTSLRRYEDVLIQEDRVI

Row | Molecule | CC50 (PS cells) [µM] | Increase in Tm of TBEV-5 G4 (TBEV-5 [2]) | RdRp activity relative to no-ligand control [4] [%] | G4 specificity of binding (titration curves with TBEV-5 versus TBEV-5mut) (TBEV-5 [7]) | SI (CC50/EC50) (TBEV strain Hypr [9]) | SI (CC50/EC50) (TBEV strain Neudoerfl [12]) | EC50 (TBEV strain Hypr [9]) [µM] | EC50 (TBEV strain Neudoerfl [12]) [µM] | Course of anti-TBEV activity over time [8] | Inhibition of RT [15] | Phase of the viral replication cycle in which the antiviral action takes effect (TBEV strain Hypr [16]) | further results
1 | 5,10,15,20-tetrakis-(N-methyl-4-pyridyl)porphine [TMPyP4] | > 50 | strong distortion of melting curves | < 10 | bind non-specifically |  |  |  |  |  |  |  | Interaction with RNA G4 [1]: specifically interact; Full product of reverse transcription relative to no-ligand control [3]: inhibits reverse transcriptase; Displacement of the probe (TO or ThT) (TBEV-5 [5]): ~100%; Change of CD at 263 nm of TBEV-5 (TBEV-5 [6]): most pronounced; Binding of TBEV-5 (concentration for 50% TBEV-5 saturation) (TBEV-5 [7]): best binder
2 | O=C1c2cccc(O)c2C(=O)c2c(O)cc(CO)cc21 [Aloe emodin, aloe-emodin] |  | strong distortion of melting curves |  |  | >1 | >1 |  |  |  |  |  | Virus inhibition in initial screening [8]: no virus inhibition effects; EC50 (TBEV strain Neudoerfl [10]): > 50 µM; EC50 (TBEV strain Hypr [11]): > 50 µM; Displacement of ThT (TBEV-5 [5]): did not significantly displace; CC50 (in vitro): > 50 µM
3 | CN(C)c1ccc(Nc2c3ccc(NC(=O)CCN4CCCC4)cc3nc3cc(NC(=O)CCN4CCCC4)ccc23)cc1 [BRACO-19] | > 50 | strong distortion of melting curves |  |  | >1 | >1 | > 50 | > 50 |  |  |  | Virus inhibition in initial screening [8]: no virus inhibition effects; Interaction with RNA G4 [1]: specifically interact; Effect on ZIKV virus titers (ZIKV virus): decrease ZIKV virus titers
4 | COc1ccc2cc3[n+](cc2c1OC)CCc1cc2c(cc1-3)OCO2 [Berberin, berberine] |  | up to 3.5 °C |  | specifically bind G4 |  |  |  |  | stable over time | did not inhibit RT | post-entry/fusion phase | EC50 [8, 20]: 1.2 to 2.9 µM; Full product of reverse transcription relative to no-ligand control [3]: does not inhibit RT; EC50 (TBEV strain Neudoerfl [10]): 1.26 µM; Reduction of numbers of viral RNA copies (TBEV strain Hypr [13]): about 40%; EC50 (TBEV strain Hypr [11]): 1.57 µM; Suppression of infectious viral particle formation [14]: partial; Displacement of TO (TBEV-5 [5]): did not displace; Displacement of ThT (TBEV-5 [5]): around 50%; Reduction of numbers of viral RNA copies (TBEV strain Neudoerfl [17]): ~25%; CC50 (in vitro): > 50 µM
5 | CN(C)c1ccc(C(=C2C=CC(=[N+](C)C)C=C2)c2ccc(N(C)C)cc2)cc1 [CV, crystal violet] |  |  |  |  |  |  |  |  |  |  |  | CC50 (PS cells; pig): < 1.6 µM
6 | Cc1cnc(CNC(=O)c2c(=O)c3ccc(N4CCCN(C)CC4)nc3n3c2sc2ccccc23)cn1 [CX5461] |  |  |  |  |  |  |  |  |  |  |  | CC50 (PS cells; pig): 14.1 µM; Antiviral effect at the lowest non-cytotoxic concentration (TBEV strain Hypr [9]): ^eNo antiviral effect was observed at the lowest non-cytotoxic concentration of 5 μM.; Antiviral effect at the lowest non-cytotoxic concentration (TBEV strain Neudoerfl [12]): ^eNo antiviral effect was observed at the lowest non-cytotoxic concentration of 5 μM.
7 | CCC1=C(C)c2cc3[nH]c(cc4nc(cc5c(CCC(=O)O)c(C)c(cc1n2)n5C)C(CCC(=O)O)=C4C)c(C)c3CC [NMM, N-Methylmesoporphyrin IX] | > 50 | up to 3.5 °C |  | specifically bind G4 | >2 500 | >5000 | 0.02 | 0.01 | stable over time | did not inhibit RT | prior to the entry/fusion steps | Concentration that completely suppressed TBEV replication [8]: 1.6 µM; Cell morphology and monolayer cohesion (PS cells): observable changes in cell morphology and in mechanical monolayer cohesion; Full product of reverse transcription relative to no-ligand control [3]: inhibits reverse transcriptase; Effect on viral RNA copies [18]: complete inhibition of RNA synthesis; Viable viral particle formation [14]: no viable viral particle formation
8 | NCCOc1cc(C(=O)Nc2cc(OCCN)c3ccccc3n2)nc(C(=O)Nc2cc(OCCN)c3ccccc3n2)c1 [PDS, Pyridostatin] |  |  | < 10 |  |  |  |  |  | stable over time | strong inhibitory effect | post-entry/fusion phase | EC50 [8, 20]: 1.2 to 2.9 µM; Phase of ZIKV cycle affected (ZIKV): replication period rather than entry; Effect on ZIKV NS2B-NS3 protease (ZIKV NS2B-NS3 protease): reduces its catalytic activity; EC50 (TBEV strain Neudoerfl [10]): 2.94 µM; EC50 (TBEV strain Hypr [11]): 1.29 µM; Suppression of infectious viral particle formation [14]: partial; also recorded: complete; CC50 (in vitro): > 50 µM
9 | C[n+]1cc(NC(=O)c2ccc3ccc4ccc(C(=O)Nc5cc6ccccc6[n+](C)c5)nc4c3n2)cc2ccccc21 [PhenDC3] | > 50 | strong distortion of melting curves | < 10 |  | >8.08 | >8.66 | 5.68 | 5.77 | gradually disappeared or dropped significantly | strong inhibitory effect | post-entry/fusion phase | EC50 [8]: ~5 µM; Inhibition of RdRp activity [19]: almost completely inhibits; Effect on HCV RdRp (HCV RdRp): no significant effect; Displacement of the probe (TO or ThT) (TBEV-5 [5]): ~100%; Change of CD at 263 nm of TBEV-5 (TBEV-5 [6]): most pronounced
10 | CN1C(=Cc2cc[n+](C)c3ccccc23)Sc2ccccc21 [TO, thiazole orange] | 1.8 | strong distortion of melting curves |  | bind non-specifically |  |  |  |  |  |  |  | Displacement of ThT (TBEV-5 [5]): almost entirely displaces; Change of CD at 263 nm of TBEV-5 (TBEV-5 [6]): most pronounced
11 | Cc1ccc2c(c1)sc(-c1ccc(N(C)C)cc1)[n+]2C [ThT, thioflavin T] |  | up to 3.5 °C |  | specifically bind G4 |  |  |  |  |  |  |  | CC50 (PS cells; pig): 10.6 µM; Antiviral effect at the lowest non-cytotoxic concentration (TBEV strain Hypr [9]): ^eNo antiviral effect was observed at the lowest non-cytotoxic concentration of 5 μM.; Displacement of TO (TBEV-5 [5]): does not displace; Antiviral effect at the lowest non-cytotoxic concentration (TBEV strain Neudoerfl [12]): ^eNo antiviral effect was observed at the lowest non-cytotoxic concentration of 5 μM.
12 | NCCOc1cc(NC(=O)c2cc(OCc3cn(CCC(=O)O)nn3)cc(C(=O)Nc3cc(OCCN)c4ccccc4n3)n2)nc2ccccc12 [cPDS, Carboxy pyridostatin] | > 50 | strong distortion of melting curves | < 10 |  | >9.05 | >11.23 | 5.52 | 4.45 | gradually disappeared or dropped significantly |  | post-entry/fusion phase | EC50 [8]: ~5 µM
